Like-named read-outs stand apart in the source and are kept apart here.
Legend:
[1] = system: P. falciparum late stage (stages IV-V) gametocytes; parameters: method as in Almela et al 2016; details: TCAMS screen comparison; ref Almela et al 2016; read-out: Pf GCT ATP IC50; cited from earlier work
[2] = system: P. falciparum female gametocytes; parameters: method as in Miguel-Blanco et al 2017; details: TCAMS screen comparison; ref Miguel-Blanco et al 2017; read-out: Pf FGAA IC50; cited from earlier work
[3] = system: P. falciparum female gametocytes; test: P. falciparum female gametogenesis assay (Pf FGAA); details: 1: YES; 0: NO
HepG2 cells [4] = test: HepG2 cytotoxicity assay; details: HepG2 cytotoxicity unified across the three screens
Summary of the method: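 Here viability after a 48 h compound incubation (37°C, humidified 5% CO2) is measured by fluorescence and expressed as percent inhibition, with doxorubicin at 50 μM and DMSO as the bounding controls.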

HepG2 cells [5] = details: cited from earlier work
[6] = system: P. falciparum late stage (stages IV-V) gametocytes; test: P. falciparum late stage gametocyte ATP depletion assay (Pf GC-ATP); details: 1: YES; 0: NO
[7] = value reported with the Pf FGAA screen, ref Miguel-Blanco et al 2017
[8] = value reported with the Pf GCT ATP screen, ref Almela et al 2016

C=CCOc1ccc2ccccc2c1CNCCCCCCNCc1c(OCC=C)ccc2ccccc12.CS(=O)(=O)O [TCMDC-137340]
IC50 [1]: 250 nM
IC50 [2]: 700 nM
Is compound selective in assay? Pf FGAA active? [3]: 0 (0: NO)
Unified cytotox (HepG2 cells [4]): 1.93 µM
HepG2 cytoxicity (HepG2 cells [5]; [7]): 1.93 µM
HepG2 cytoxicity (HepG2 cells [5]; [8]): <1.56 µM
Is compound selective in assay? Pf GC-ATP active? [6]: 0 (0: NO)

Cl.c1ccc2c(Nc3ccc(Cc4ccc(Nc5c6ccccc6nc6ccccc56)cc4)cc3)c3ccccc3nc2c1 [TCMDC-137354]
IC50 [1]: 2300 nM
IC50 [2]: 1040 nM
Is compound selective in assay? Pf FGAA active? [3]: 0 (0: NO)
Unified cytotox (HepG2 cells [4]): 4.17 µM
HepG2 cytoxicity (HepG2 cells [5]; [7]): 3.85 µM
HepG2 cytoxicity (HepG2 cells [5]; [8]): 4.49 µM
Is compound selective in assay? Pf GC-ATP active? [6]: 0 (0: NO)

Br.C/C=C/C=C/C1=NCCc2cc(OCCC)ccc21 [TCMDC-137442]
IC50 [1]: 750 nM
IC50 [2]: 1300 nM
Is compound selective in assay? Pf FGAA active? [3]: 1 (1: YES)
Unified cytotox (HepG2 cells [4]): 18.64 µM
HepG2 cytoxicity (HepG2 cells [5]; [7]): 18.29 µM
HepG2 cytoxicity (HepG2 cells [5]; [8]): 19 µM
Is compound selective in assay? Pf GC-ATP active? [6]: 1 (1: YES)

Cl.N=C(NCCCCC1CCCCC1)c1cccc(C(=N)NCCCCC2CCCCC2)n1 [TCMDC-137452]
IC50 [1]: 220 nM
IC50 [2]: 1050 nM
Is compound selective in assay? Pf FGAA active? [3]: 0 (0: NO)
Unified cytotox (HepG2 cells [4]): 1.71 µM
HepG2 cytoxicity (HepG2 cells [5]; [7]): 1.82 µM
HepG2 cytoxicity (HepG2 cells [5]; [8]): 1.6 µM
Is compound selective in assay? Pf GC-ATP active? [6]: 0 (0: NO)

CC(CNC(=N)c1cccc(C(=N)NCC(C)Oc2cccc(C3CCCCC3)c2)n1)Oc1cccc(C2CCCCC2)c1.Cl (centres unmarked) [TCMDC-137455]
IC50 [1]: 240 nM
IC50 [2]: 1270 nM
Is compound selective in assay? Pf FGAA active? [3]: 0 (0: NO)
Unified cytotox (HepG2 cells [4]): 2.85 µM
HepG2 cytoxicity (HepG2 cells [5]; [7]): 2.16 µM
HepG2 cytoxicity (HepG2 cells [5]; [8]): 3.53 µM
Is compound selective in assay? Pf GC-ATP active? [6]: 1 (1: YES)

N=C(NCC1CC1c1ccccc1)c1cccc(C(=N)NCC2CC2c2ccccc2)n1 (centres unmarked) [TCMDC-137456]
IC50 [1]: 450 nM
IC50 [2]: 1890 nM
Is compound selective in assay? Pf FGAA active? [3]: 0 (0: NO)
Unified cytotox (HepG2 cells [4]): 6.50 µM
HepG2 cytoxicity (HepG2 cells [5]; [7]): 6.21 µM
HepG2 cytoxicity (HepG2 cells [5]; [8]): 6.8 µM
Is compound selective in assay? Pf GC-ATP active? [6]: 1 (1: YES)

COc1ccc(CNCCCCCCNCc2ccc(OC)c3ccccc23)c2ccccc12.Cl [TCMDC-137631]
IC50 [1]: 510 nM
IC50 [2]: 720 nM
Is compound selective in assay? Pf FGAA active? [3]: 0 (0: NO)
Unified cytotox (HepG2 cells [4]): 2.44 µM
HepG2 cytoxicity (HepG2 cells [5]; [7]): 1.82 µM
HepG2 cytoxicity (HepG2 cells [5]; [8]): 3.06 µM
Is compound selective in assay? Pf GC-ATP active? [6]: 0 (0: NO)

CN1CCN(CCNc2c3ccccc3nc3c2ccc2ccccc23)CC1.Cl [TCMDC-137723]
IC50 [1]: 390 nM
IC50 [2]: 3490 nM
Is compound selective in assay? Pf FGAA active? [3]: 0 (0: NO)
Unified cytotox (HepG2 cells [4]): 5.84 µM
HepG2 cytoxicity (HepG2 cells [5]; [7]): 5.07 µM
HepG2 cytoxicity (HepG2 cells [5]; [8]): 6.6 µM
Is compound selective in assay? Pf GC-ATP active? [6]: 1 (1: YES)

COc1ccc2nc(-c3ccccc3)cc(NCCCNc3cc(-c4ccccc4)nc4ccc(OC)cc34)c2c1.Cl [TCMDC-137734]
IC50 [1]: 1210 nM
IC50 [2]: 5600 nM
Is compound selective in assay? Pf FGAA active? [3]: 0 (0: NO)
Unified cytotox (HepG2 cells [4]): 38.15 µM
HepG2 cytoxicity (HepG2 cells [5]; [7]): 70.79 µM
HepG2 cytoxicity (HepG2 cells [5]; [8]): 5.5 µM
Is compound selective in assay? Pf GC-ATP active? [6]: 1 (1: YES)

Cl.c1ccc2c(NCCCCCCCCCNc3ccnc4ccccc34)ccnc2c1 [TCMDC-137750]
IC50 [1]: 1030 nM
IC50 [2]: 850 nM
Is compound selective in assay? Pf FGAA active? [3]: 0 (0: NO)
Unified cytotox (HepG2 cells [4]): 2.20 µM
HepG2 cytoxicity (HepG2 cells [5]; [7]): 1.50 µM
HepG2 cytoxicity (HepG2 cells [5]; [8]): 2.9 µM
Is compound selective in assay? Pf GC-ATP active? [6]: 0 (0: NO)

Cl.c1ccc2c(NCCCCCCCCNc3ccnc4ccccc34)ccnc2c1 [TCMDC-137751]
IC50 [1]: 1080 nM
IC50 [2]: 1020 nM
Is compound selective in assay? Pf FGAA active? [3]: 0 (0: NO)
Unified cytotox (HepG2 cells [4]): 2.44 µM
HepG2 cytoxicity (HepG2 cells [5]; [7]): 1.15 µM
HepG2 cytoxicity (HepG2 cells [5]; [8]): 3.74 µM
Is compound selective in assay? Pf GC-ATP active? [6]: 0 (0: NO)

CS(=O)(=O)O.CSc1ccc2ccccc2c1CCNCCCCNCCc1c(SC)ccc2ccccc12 [TCMDC-137763]
IC50 [1]: 230 nM
IC50 [2]: 1010 nM
Is compound selective in assay? Pf FGAA active? [3]: 0 (0: NO)
Unified cytotox (HepG2 cells [4]): 1.73 µM
HepG2 cytoxicity (HepG2 cells [5]; [7]): 1.82 µM
HepG2 cytoxicity (HepG2 cells [5]; [8]): 1.65 µM
Is compound selective in assay? Pf GC-ATP active? [6]: 0 (0: NO)

CC1CCCCN1CCCNc1nc(NCc2ccccc2)c2ccccc2n1 (centres unmarked) [TCMDC-137771]
IC50 [1]: 140 nM
IC50 [2]: 7250 nM
Is compound selective in assay? Pf FGAA active? [3]: 0 (0: NO)
Unified cytotox (HepG2 cells [4]): 17.35 µM
HepG2 cytoxicity (HepG2 cells [5]; [7]): 14.62 µM
HepG2 cytoxicity (HepG2 cells [5]; [8]): 20.07 µM
Is compound selective in assay? Pf GC-ATP active? [6]: 1 (1: YES)

COc1cc2ccccc2c(CNCCCCCCNCc2c(OC)c(OC)cc3ccccc23)c1OC.CS(=O)(=O)O [TCMDC-137795]
IC50 [1]: 1050 nM
IC50 [2]: 670 nM
Is compound selective in assay? Pf FGAA active? [3]: 0 (0: NO)
Unified cytotox (HepG2 cells [4]): 4.66 µM
HepG2 cytoxicity (HepG2 cells [5]; [7]): 4.62 µM
HepG2 cytoxicity (HepG2 cells [5]; [8]): 4.7 µM
Is compound selective in assay? Pf GC-ATP active? [6]: 0 (0: NO)

COc1ccc2ccc(OC)c(CNCCCCCCNCc3c(OC)ccc4ccc(OC)cc34)c2c1.CS(=O)(=O)O [TCMDC-137796]
IC50 [1]: 290 nM
IC50 [2]: 1210 nM
Is compound selective in assay? Pf FGAA active? [3]: 0 (0: NO)
Unified cytotox (HepG2 cells [4]): 3.36 µM
HepG2 cytoxicity (HepG2 cells [5]; [7]): 3.31 µM
HepG2 cytoxicity (HepG2 cells [5]; [8]): 3.4 µM
Is compound selective in assay? Pf GC-ATP active? [6]: 1 (1: YES)

COc1ccc2cc(CNCCCCCCNCc3ccc4cc(OC)ccc4c3)ccc2c1.CS(=O)(=O)O [TCMDC-137797]
IC50 [1]: 670 nM
IC50 [2]: 590 nM
Is compound selective in assay? Pf FGAA active? [3]: 0 (0: NO)
Unified cytotox (HepG2 cells [4]): 2.27 µM
HepG2 cytoxicity (HepG2 cells [5]; [7]): 1.55 µM
HepG2 cytoxicity (HepG2 cells [5]; [8]): 3 µM
Is compound selective in assay? Pf GC-ATP active? [6]: 0 (0: NO)

c1cc(C2=N[C@H]3CCCC[C@@H]3N2)ccc1OCCCOc1ccc(C2=N[C@@H]3CCCC[C@H]3N2)cc1 [TCMDC-137803]
IC50 [1]: 470 nM
IC50 [2]: 11500 nM
Is compound selective in assay? Pf FGAA active? [3]: 0 (0: NO)
Unified cytotox (HepG2 cells [4]): 38.02 µM
HepG2 cytoxicity (HepG2 cells [5]; [7]): 38.02 µM
HepG2 cytoxicity (HepG2 cells [5]; [8]): >25 µM
Is compound selective in assay? Pf GC-ATP active? [6]: 1 (1: YES)

CS(=O)(=O)O.FC(F)(F)COc1ccc2ccccc2c1CNCCCCCCNCc1c(OCC(F)(F)F)ccc2ccccc12 [TCMDC-137816]
IC50 [1]: 370 nM
IC50 [2]: 1090 nM
Is compound selective in assay? Pf FGAA active? [3]: 0 (0: NO)
Unified cytotox (HepG2 cells [4]): 2.44 µM
HepG2 cytoxicity (HepG2 cells [5]; [7]): 1.84 µM
HepG2 cytoxicity (HepG2 cells [5]; [8]): 3.04 µM
Is compound selective in assay? Pf GC-ATP active? [6]: 0 (0: NO)

COc1c(OC)c(OC)c2ccccc2c1CNCCCCCCNCc1c(OC)c(OC)c(OC)c2ccccc12.Cl [TCMDC-137827]
IC50 [1]: 1150 nM
IC50 [2]: 1670 nM
Is compound selective in assay? Pf FGAA active? [3]: 0 (0: NO)
Unified cytotox (HepG2 cells [4]): 3.08 µM
HepG2 cytoxicity (HepG2 cells [5]; [7]): 2.95 µM
HepG2 cytoxicity (HepG2 cells [5]; [8]): 3.2 µM
Is compound selective in assay? Pf GC-ATP active? [6]: 0 (0: NO)

C#CCCOc1ccc2ccccc2c1CNCCCCCCNCc1c(OCCC#C)ccc2ccccc12 [TCMDC-137832]
IC50 [1]: 410 nM
IC50 [2]: 920 nM
Is compound selective in assay? Pf FGAA active? [3]: 0 (0: NO)
Unified cytotox (HepG2 cells [4]): 5.14 µM
HepG2 cytoxicity (HepG2 cells [5]; [7]): 4.79 µM
HepG2 cytoxicity (HepG2 cells [5]; [8]): 5.5 µM
Is compound selective in assay? Pf GC-ATP active? [6]: 1 (1: YES)

— publication PMC6753678, “Fueling Open Innovation for Malaria Transmission-Blocking Drugs: Hundreds of Molecules Targeting Early Parasite Mosquito Stages” (Frontiers in Microbiology, 2019)
